The subject of assay [1] is Mcl-1 1780 cell line. Nature of the assay: DAPI fluorescence cell-based cytotoxicity (apoptosis) assay, Mcl-1 1780. On the set-up: species or system mouse. The following applies: 1 μM, 500 nM, 250 nM, 125 nM; 24 hours; FIG. 2. The method, then:
(§1) The mouse leukemia-derived cell lines Mcl-1-1780 and Bcl-2-1863 (Ryan et al., Proc. Nat. Acad. Sci USA, 107, 12895-12900, which is hereby incorporated by reference in its entirety) were obtained under license from Dana Farber Cancer Institute. Cells were grown in RPMI 1640 medium (GIBCO-BRL) with 2 mM L-glutamine, 4.5 g/L glucose, 1.0 mM sodium pyruvate and 5% fetal bovine serum. Cells were expanded in tissue culture in appropriate media and then sub-cultured into 96-well plates at a seeding density of 20,000 cells per well. After incubation for 24 hours, cells were treated with compounds that are titrated into appropriate medium with FCS. Four concentrations of compound were used: 1 μM, 500 nM, 250 nM, and 125 nM. Assay was run in triplicate for each compound at each concentration and averages were calculated. Cells were treated with compound for 24 hours, then fixed with methanol and stained with the DNA-binding agent DAPI (4′,6-diamidino-2-phenylindole). The cells were then examined by fluorescent microscopy; cells in which caspase 3 and caspase 7 have not been activated will emit at […] when excited by […] light. Caspase-mediated cleavage of nucleosomal proteins causes condensed, pycnotic nuclear morphology that may be measured by cell counting.

For assay [2], the system named is Bcl-2 1863 cell line. Nature of the assay: DAPI fluorescence cell-based cytotoxicity (apoptosis) assay, Bcl-2 1863. The settings on record: 1 μM, 500 nM, 250 nM, 125 nM; 24 hours; relative to Mcl-1 1780; FIG. 2. On the set-up: species or system mouse. The method, then:
as §1

Assay [3] concerns DHL-6 cell line. The assay is described as follows: In situ mitochondrial cytochrome c release assay, DHL-6. Type of assay: cell-based. The settings on record: semi-permeabilized cells, 1 hour; Bax/Bak-functional cell line; FIG. 3. The source says: (§2) The on-target activity of compound 12 was validated. Changes in mitochondrial integrity were observed utilizing anti-cytochrome c conjugated to Alexa488 (BD). When the mitochondria are intact, they retain cytochrome c and have bright, punctate staining with the antibody whereas cells with compromised mitochondrial integrity will lose cytochrome c and will not stain with the antibody. This can be observed by microscopy as well as measured by a shift in fluorescence on the FL1 channel of a flow cytometer.
(§3) The selective response of mitochondria in semi-permeabilized cell lines to the compounds was observed. The assay was adapted from (Campos et al. (2006) Cytometry Part A. 69(A):515-523, which is hereby incorporated by reference in its entirety).
(§4) Suspension cell lines SUDHL6, SUDHL8, and SUDHL10 were grown in RPMI, washed once in 1×PBS and re-suspended at a concentration of 2e6/ml in assay buffer with 0.0025% Digitonin. Assay buffer; 300 mM Trehalose, 10 mM HEPES-KOH pH 7.7, 80 mM KCl, 1 mM EGTA, 1 mM EDTA, 0.1% BSA, 5 mM Succinate. […] Cytochrome c loss was measured by microscopy. At least 100 cells per treatment were counted and scored as positive for cytochrome c loss if they lacked staining. In both methods DMSO was calculated as 0% cytochrome c loss and the Bim response for DHL6 was used to determine 100% cytochrome c loss.

The subject of assay [4] is DHL-8 cell line. The assay is described as follows: In situ mitochondrial cytochrome c release assay, DHL-8. The settings on record: semi-permeabilized cells, 1 hour; reduced mitochondrial priming; FIG. 3. Type of assay: cell-based.
Excerpt: as §2, §3, §4

Assay [5] concerns DHL-10 cell line. The assay is described as follows: In situ mitochondrial cytochrome c release assay, DHL-10. The settings on record: semi-permeabilized cells, 1 hour; Bax/Bak-deficient cell line; FIG. 3. Type of assay: cell-based.
Excerpt: as §2, §3, §4

As to `CCN1CCN(C(c2ccc(C(F)(F)F)cc2)c2ccc3cccnc3c2O)CC1` (centres unmarked) [Compound 12, 7-((4-ethylpiperazin-1-yl)(4-(trifluoromethyl)phenyl)methyl)quinolin-8-ol], the “Induction of apoptosis (DAPI nuclear morphology) in Mcl-1 1780” value in assay [1] is reported as “induce apoptosis”. Also, the “Induction of apoptosis (DAPI nuclear morphology) in Bcl-2 1863” value in assay [2] is reported as “significantly lesser degree”. For the same molecule, in assay [3], the “Cytochrome c release, DHL-6” value is “activity”. In assay [4], the “Cytochrome c release, DHL-8” value is on record as “reduced activity”. Further, the “Cytochrome c release, DHL-10” value in assay [5] is on record as “lack of activity”.

These data come from patent publication US20150133450A1, “METHODS AND COMPOSITIONS USEFUL FOR TREATING DISEASES INVOLVING BCL-2 FAMILY PROTEINS WITH QUINOLINE DERIVATIVES” (Eutropics Pharmaceuticals, Inc., priority 2012, published 2015).
